Data as given in PubChem BioAssay (NCI).
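96-well plates; 48 h exposure; 5 concentrations. Endpoints by linear interpolation between flanking doses. Not reached: highest tested concentration assigned. TGI denotes the concentration required for complete inhibition of growth.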

How the values were obtained:
Test in all cases: DTP human tumour cell line panel, 48 h
786-0 renal = tested on: 786-0 renal
A498 renal = tested on: A498 renal
A549 NSCLC = tested on: A549 NSCLC
ACHN renal = tested on: ACHN renal
CAKI-1 renal = tested on: CAKI-1 renal
CCRF-CEM leukemia = tested on: CCRF-CEM leukemia
COLO 205 colon = tested on: COLO 205 colon
DLD-1 colon = tested on: DLD-1 colon
DMS 114 small cell lung = tested on: DMS 114 small cell lung
DMS 273 small cell lung = tested on: DMS 273 small cell lung
EKVX NSCLC = tested on: EKVX NSCLC
HCC-2998 colon = tested on: HCC-2998 colon
HCT-116 colon = tested on: HCT-116 colon
HCT-15 colon = tested on: HCT-15 colon
HL-60(TB) leukemia = tested on: HL-60(TB) leukemia
HOP-18 NSCLC = tested on: HOP-18 NSCLC
HOP-62 NSCLC = tested on: HOP-62 NSCLC
HOP-92 NSCLC = tested on: HOP-92 NSCLC
HT29 colon = tested on: HT29 colon
IGROV1 ovarian = tested on: IGROV1 ovarian
K-562 leukemia = tested on: K-562 leukemia
KM20L2 colon = tested on: KM20L2 colon
LXFL 529 NSCLC = tested on: LXFL 529 NSCLC
M14 melanoma = tested on: M14 melanoma
M19-MEL melanoma = tested on: M19-MEL melanoma
MALME-3M melanoma = tested on: MALME-3M melanoma
MOLT-4 leukemia = tested on: MOLT-4 leukemia
NCI-H23 lung = tested on: NCI-H23 lung
NCI-H460 lung = tested on: NCI-H460 lung
OVCAR-3 ovarian = tested on: OVCAR-3 ovarian
OVCAR-4 ovarian = tested on: OVCAR-4 ovarian
OVCAR-5 ovarian = tested on: OVCAR-5 ovarian
OVCAR-8 ovarian = tested on: OVCAR-8 ovarian
RPMI-8226 leukemia = tested on: RPMI-8226 leukemia
RXF 393 renal = tested on: RXF 393 renal
SF-268 CNS = tested on: SF-268 CNS
SF-295 CNS = tested on: SF-295 CNS
SF-539 CNS = tested on: SF-539 CNS
SK-MEL-2 melanoma = tested on: SK-MEL-2 melanoma
SK-MEL-28 melanoma = tested on: SK-MEL-28 melanoma
SK-MEL-5 melanoma = tested on: SK-MEL-5 melanoma
SK-OV-3 ovarian = tested on: SK-OV-3 ovarian
SN12C renal = tested on: SN12C renal
SNB-19 CNS = tested on: SNB-19 CNS
SNB-75 CNS = tested on: SNB-75 CNS
SNB-78 CNS = tested on: SNB-78 CNS
SW-620 colon = tested on: SW-620 colon
TK-10 renal = tested on: TK-10 renal
U251 CNS = tested on: U251 CNS
UACC-257 melanoma = tested on: UACC-257 melanoma
UACC-62 melanoma = tested on: UACC-62 melanoma
UO-31 renal = tested on: UO-31 renal
XF 498 CNS = tested on: XF 498 CNS

c1ccc(C2N3CCCCC3[C@@H]3c4[nH]c5ccccc5c4CCN23)cc1 (stereo partly drawn)
TGI (786-0 renal): > 100 µM | TGI (A498 renal): 63.6 µM | TGI (A549 NSCLC): > 100 µM | TGI (ACHN renal): > 100 µM | TGI (CAKI-1 renal): > 100 µM | TGI (CCRF-CEM leukemia): > 100 µM | TGI (COLO 205 colon): 48.2 µM | TGI (DLD-1 colon): > 100 µM | TGI (DMS 114 small cell lung): > 100 µM | TGI (DMS 273 small cell lung): > 100 µM | TGI (EKVX NSCLC): > 100 µM | TGI (HCC-2998 colon): > 100 µM | TGI (HCT-116 colon): > 100 µM | TGI (HCT-15 colon): > 100 µM | TGI (HL-60(TB) leukemia): 48.8 µM | TGI (HOP-18 NSCLC): > 100 µM | TGI (HOP-62 NSCLC): > 100 µM | TGI (HOP-92 NSCLC): > 100 µM | TGI (HT29 colon): 33.5 µM | TGI (IGROV1 ovarian): > 100 µM | TGI (K-562 leukemia): > 100 µM | TGI (KM20L2 colon): > 100 µM | TGI (LXFL 529 NSCLC): > 100 µM | TGI (M14 melanoma): > 100 µM | TGI (M19-MEL melanoma): > 100 µM | TGI (MALME-3M melanoma): > 100 µM | TGI (MOLT-4 leukemia): > 100 µM | TGI (NCI-H23 lung): > 100 µM | TGI (NCI-H460 lung): > 100 µM | TGI (OVCAR-3 ovarian): > 100 µM | TGI (OVCAR-4 ovarian): 75.6 µM | TGI (OVCAR-5 ovarian): > 100 µM | TGI (OVCAR-8 ovarian): > 100 µM | TGI (RPMI-8226 leukemia): > 100 µM | TGI (RXF 393 renal): > 100 µM | TGI (SF-268 CNS): > 100 µM | TGI (SF-295 CNS): > 100 µM | TGI (SF-539 CNS): > 100 µM | TGI (SK-MEL-2 melanoma): > 100 µM | TGI (SK-MEL-28 melanoma): 70.2 µM | TGI (SK-MEL-5 melanoma): > 100 µM | TGI (SK-OV-3 ovarian): > 100 µM | TGI (SN12C renal): > 100 µM | TGI (SNB-19 CNS): > 100 µM | TGI (SNB-75 CNS): > 100 µM | TGI (SNB-78 CNS): > 100 µM | TGI (SW-620 colon): > 100 µM | TGI (TK-10 renal): > 100 µM | TGI (U251 CNS): > 100 µM | TGI (UACC-257 melanoma): > 100 µM | TGI (UACC-62 melanoma): > 100 µM | TGI (UO-31 renal): > 100 µM | TGI (XF 498 CNS): > 100 µM
